{"source": "patent US4470974A", "about": "“Gastric cytoprotection with L-363,586” (Merck & Co., Inc., priority 1983, dated 1984)", "key": {"[1]": {"system": "S.D. rat", "assay_type": "in vivo", "conditions": "for Gastric Ulcers % Inhibition / Gastric Ulcers Mean Score + SEM (number of ulcers): 4 hours after indomethacin; for dose at which significant ulcer reduction was observed: administered simultaneously with indomethacin", "method": "Indomethacin, 20 mg/kg p.o., was used to induce ulcers in the 24 hr. fasted S.D. rat. […]\nThe number of ulcers for twenty-six (i.p.) and fifteen (p.o.) aqueous vehicle-dosed control animals in the indomethacin ulcer assay were so close, (23.0±2.2 S.E.M. i.p.; 18.1±1.6 S.E.M. p.o.), that the data from each experimental dosage group were pooled for group statistical analysis by way of Student's \"t\" test. FIG. 1 indicates the number of ulcers resulting from indomethacin at 20 mg/kg p.o., when either 0.5% (wt.) aqueous methylcellulose vehicle or L-363,586 was co-administered. The bold-faced numbers at the bottom of each column represent the number of rats used for each value, while the dose, in mg/kg, is noted at the top of each column. […] Higher i.p. doses, from 0.0016 to 0.1 mg/kg, thereafter, inhibited ulcer formation by 80% to 94%."}, "[2]": {"system": "Sprague-Dawley (S.D.) rats", "assay_type": "in vivo, rat", "conditions": "for Gastric Lesions % Inhibition / Gastric Lesions Mean Score + SEM: 60 minutes after ethanol", "method": "Twenty-four hr. fasted Sprague-Dawley (S.D.) rats were perorally (p.o.) dosed with 1.0 ml absolute ethanol. […] One hour later, the animals were sacrificed and stomach mucosae were examined for resulting lesions."}, "[3]": {"conditions": "0.0001 mg/kg i.p. immediately following 20 mg/kg p.o. indomethacin"}, "[4]": {"conditions": "0.001 mg/kg i.p. immediately following 20 mg/kg p.o. indomethacin"}, "[5]": {"conditions": "0.01 mg/kg i.p. immediately following 20 mg/kg p.o. indomethacin"}, "[6]": {"conditions": "0.1 mg/kg i.p. immediately following 20 mg/kg p.o. indomethacin"}, "[7]": {"conditions": "0.22 mg/kg p.o. coadministered with 1.0 ml 100% ethanol"}, "[8]": {"conditions": "0.44 mg/kg p.o. coadministered with 1.0 ml 100% ethanol"}, "[9]": {"conditions": "1.0 mg/kg p.o. coadministered with 1.0 ml 100% ethanol"}, "[10]": {"conditions": "2.2 mg/kg p.o. coadministered with 1.0 ml 100% ethanol"}, "[11]": {"conditions": "4.4 mg/kg p.o. coadministered with 1.0 ml 100% ethanol"}, "[12]": {"conditions": "0.01 mg/kg p.o. simultaneously with indomethacin 20 mg/kg p.o."}, "[13]": {"conditions": "0.1 mg/kg p.o. simultaneously with indomethacin 20 mg/kg p.o."}, "[14]": {"conditions": "1.0 mg/kg p.o. simultaneously with indomethacin 20 mg/kg p.o."}}, "note": "Like-named read-outs stand apart in the source and are kept apart here."}
{"compound": "C[C@H](N)C(=O)NCC(=O)N[C@H]1CSSC[C@@H](C(=O)O)NC(=O)[C@H](CO)NC(=O)[C@H]([C@@H](C)O)NC(=O)[C@H](Cc2ccccc2)NC(=O)[C@H]([C@@H](C)O)NC(=O)[C@H](CCCCN)NC(=O)[C@H](Cc2c[nH]c3ccccc23)NC(=O)[C@H](Cc2ccccc2)NC(=O)[C@H](Cc2ccccc2)NC(=O)[C@H](CC(N)=O)NC(=O)[C@H](CCCCN)NC1=O", "note": "[somatostatin, reference compound]", "values": [{"measurement": "Gastric Ulcers % Inhibition", "setting": "[1]; [3]", "result": -9.3, "unit": "%"}, {"measurement": "Gastric Ulcers Mean Score + SEM (number of ulcers)", "setting": "[1]; [3]", "result": "22.4 ± 3.8"}, {"measurement": "Gastric Ulcers % Inhibition", "setting": "[1]; [4]", "result": 2.4, "unit": "%"}, {"measurement": "Gastric Ulcers Mean Score + SEM (number of ulcers)", "setting": "[1]; [4]", "result": "21.0 ± 2.4"}, {"measurement": "Gastric Ulcers % Inhibition", "setting": "[1]; [5]", "result": 16.1, "unit": "%"}, {"measurement": "Gastric Ulcers Mean Score + SEM (number of ulcers)", "setting": "[1]; [5]", "result": "17.2 ± 2.3"}, {"measurement": "Gastric Ulcers % Inhibition", "setting": "[1]; [6]", "result": 5.9, "unit": "%"}, {"measurement": "Gastric Ulcers Mean Score + SEM (number of ulcers)", "setting": "[1]; [6]", "result": "19.3 ± 3.3"}, {"measurement": "Gastric Ulcers Mean Score + SEM (number of ulcers)", "setting": "[1]; 0.5 mg/kg i.p. immediately following 20 mg/kg p.o. indomethacin", "result": "7.7 ± 3.6"}, {"measurement": "Gastric Ulcers Mean Score + SEM (number of ulcers)", "setting": "[1]; 1.0 mg/kg i.p. immediately following 20 mg/kg p.o. indomethacin", "result": "11.0 ± 3.0"}, {"measurement": "effectiveness in the peroral (p.o.) indomethacin-induced ulcer assay", "setting": "[1]; doses up to 0.1 mg/kg i.p.", "result": "not effective"}]}
{"compound": "CC(C)[C@@H]1NC(=O)[C@H](CCCCN)NC(=O)[C@@H](Cc2c[nH]c3ccccc23)NC(=O)[C@H](Cc2ccc(O)cc2)NC(=O)[C@H](C)N(C)C(=O)[C@H](Cc2ccccc2)NC1=O", "note": "[L-363,586, cyclo-(N-methyl-Ala-Tyr-d-Trp-Lys-Val-Phe)]", "values": [{"measurement": "Gastric Lesions % Inhibition", "setting": "[2]; [7]", "result": 8.0, "unit": "%"}, {"measurement": "Gastric Lesions Mean Score + SEM", "setting": "[2]; [7]", "result": "2.3 ± 0.3"}, {"measurement": "Gastric Lesions % Inhibition", "setting": "[2]; [8]", "result": 28.0, "unit": "%"}, {"measurement": "Gastric Lesions Mean Score + SEM", "setting": "[2]; [8]", "result": "1.8 ± 0.4"}, {"measurement": "Gastric Lesions % Inhibition", "setting": "[2]; [9]", "result": 28.0, "unit": "%"}, {"measurement": "Gastric Lesions Mean Score + SEM", "setting": "[2]; [9]", "result": "1.8 ± 0.3"}, {"measurement": "Gastric Lesions % Inhibition", "setting": "[2]; [10]", "result": 40.0, "unit": "%"}, {"measurement": "Gastric Lesions Mean Score + SEM", "setting": "[2]; [10]", "result": "1.5 ± 0.4"}, {"measurement": "Gastric Lesions % Inhibition", "setting": "[2]; [11]", "result": 60.0, "unit": "%"}, {"measurement": "Gastric Lesions Mean Score + SEM", "setting": "[2]; [11]", "result": "1.0 ± 0.3"}, {"measurement": "prophylactic effect on ethanol-induced lesions", "setting": "[2]; 0.037 to 3.0 mg/kg p.o. fifteen min. prior to 1.0 ml absolute ethanol, examined one hour later", "result": "No prophylactic effect"}, {"measurement": "dose significantly effective in protecting against ethanol-induced lesions", "setting": "[2]; p.o. simultaneously with 100% ethanol, lowest such dose", "result": 0.44, "unit": "mg/kg"}, {"measurement": "reduction of the number of ulcers", "setting": "[1]; 0.00001 mg/kg (10 nanograms/kg) i.p. immediately following indomethacin 20 mg/kg p.o.", "result": 58.3, "unit": "%"}, {"measurement": "% Inhibition of Gastric Ulcers", "setting": "[1]; [12]", "result": -2.8, "unit": "%"}, {"measurement": "Number of Gastric Ulcers M + S.E.M.", "setting": "[1]; [12]", "result": "18.6 ± 4.4"}, {"measurement": "% Inhibition of Gastric Ulcers", "setting": "[1]; [13]", "result": 50.3, "unit": "%"}, {"measurement": "Number of Gastric Ulcers M + S.E.M.", "setting": "[1]; [13]", "result": "9.0 ± 1.9"}, {"measurement": "% Inhibition of Gastric Ulcers", "setting": "[1]; [14]", "result": 83.4, "unit": "%"}, {"measurement": "Number of Gastric Ulcers M + S.E.M.", "setting": "[1]; [14]", "result": "3.0 ± 1.3"}, {"measurement": "reduction in gastric mucosal ulcers", "setting": "[1]; administered either p.o. or i.p.", "result": "dose-dependent reduction"}, {"measurement": "dose at which significant ulcer reduction was observed", "setting": "[1]; i.p.", "result": 10, "unit": "nanograms per kilogram"}, {"measurement": "further reduction of damage with increasing dose", "setting": "[1]; increasing log-dose amounts from 0.00001 to 0.001 mg/kg i.p., indomethacin 20 mg/kg p.o.", "result": "did not effectively reduce the damage any further"}, {"measurement": "dose at which significant ulcer reduction was observed", "setting": "[1]; p.o.", "result": 0.1, "unit": "mg/kg"}]}
